Usually IC50 stands for the concentration at which inhibition is half-maximal.

The values that follow come from article PMC12091851, “Replacing a Cereblon Ligand by a DDB1 and CUL4 Associated Factor 11 (DCAF11) Recruiter Converts a Selective Histone Deacetylase 6 PROTAC into a Pan‐Degrader” (Chemmedchem, 2025).

The target in this assay is T1, HDAC6 (Homo sapiens, UniProt Q9UBN7).
T1 sequence (Q9UBN7 1-1215): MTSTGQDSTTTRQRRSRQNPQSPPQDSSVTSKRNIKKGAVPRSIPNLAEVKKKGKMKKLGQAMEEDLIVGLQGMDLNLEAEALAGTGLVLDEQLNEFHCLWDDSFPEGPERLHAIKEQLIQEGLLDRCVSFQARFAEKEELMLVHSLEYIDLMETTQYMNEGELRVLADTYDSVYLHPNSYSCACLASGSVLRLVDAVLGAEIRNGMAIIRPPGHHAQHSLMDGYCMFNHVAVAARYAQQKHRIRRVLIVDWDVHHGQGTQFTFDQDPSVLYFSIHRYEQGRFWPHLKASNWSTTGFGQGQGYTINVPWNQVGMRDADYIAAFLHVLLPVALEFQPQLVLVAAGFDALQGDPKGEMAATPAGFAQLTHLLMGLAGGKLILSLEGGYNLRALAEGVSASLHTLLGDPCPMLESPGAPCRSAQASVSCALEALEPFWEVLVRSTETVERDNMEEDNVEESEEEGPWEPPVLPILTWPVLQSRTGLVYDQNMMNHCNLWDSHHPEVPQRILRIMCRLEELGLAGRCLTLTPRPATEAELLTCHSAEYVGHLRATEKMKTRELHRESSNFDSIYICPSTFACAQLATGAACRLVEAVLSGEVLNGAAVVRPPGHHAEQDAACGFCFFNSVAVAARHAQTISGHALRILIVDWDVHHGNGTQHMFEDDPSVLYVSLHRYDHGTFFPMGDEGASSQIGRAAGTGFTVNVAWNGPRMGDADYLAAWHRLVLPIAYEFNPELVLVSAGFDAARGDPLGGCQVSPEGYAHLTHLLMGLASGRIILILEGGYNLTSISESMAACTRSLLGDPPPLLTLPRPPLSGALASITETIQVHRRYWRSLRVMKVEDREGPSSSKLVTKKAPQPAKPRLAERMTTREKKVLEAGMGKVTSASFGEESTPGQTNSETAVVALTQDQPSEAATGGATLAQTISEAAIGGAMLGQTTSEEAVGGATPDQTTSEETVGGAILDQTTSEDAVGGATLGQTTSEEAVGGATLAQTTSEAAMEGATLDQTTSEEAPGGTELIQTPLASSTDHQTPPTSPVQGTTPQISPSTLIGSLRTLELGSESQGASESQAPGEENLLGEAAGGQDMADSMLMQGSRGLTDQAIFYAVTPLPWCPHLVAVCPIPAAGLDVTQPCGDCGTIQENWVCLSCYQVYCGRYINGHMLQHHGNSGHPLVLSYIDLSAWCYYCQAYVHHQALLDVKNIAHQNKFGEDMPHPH
Put plainly: HDAC enzyme inhibition assay. It is filed as biochemical. Also on record: purchased BPS Bioscience 50006. The protocol: Bio-Rad) to Immobilon-FL PVDF membranes (Catalog# IPFL00005, Mill ipore Merck, Burlington, MA, USA) at 1.0 A for 30 min and treated with 5% milk-powder solution for 1 h at room temperature […]
Signaling Technology) antibody solutions in 1:1000 –1:8000 dilutions at 4 °C overnight. […]
Significance testing was performed with a one -way analysis of variance (ANOVA). Dunnett’s post -hoc test was employed to obtain significance levels of each mean compared to a reference mean value.
2.7. HDAC Enzyme Inhibition Assay […]
[4] For test compounds and controls, serial dilutions of the respective DMSO stock solution in DMSO were prepared, and 1.0 μL /well of this serial dilution were transferred […]
into OptiPlate-96 black microplates (PerkinElmer, Waltham, […], USA). A volume of 4 µL/well assay […]
BSA) was added. In the case of HDAC1, 2, and 6, a volume of 35 μL/well of the fluorogenic substrate […]
The total assay volume of 50 μL (max. 2 % DMSO) was incubated at 37 °C for 90 min. Subsequently, 50 μL /well of trypsin (0.4 mg/mL) in trypsin buffer (50 mM Tris−HCl, pH 8.0, 100 mM NaCl) was added, followed by additional 30 min of incubation at […]
OPTIMA microplate reader (BMG labtech, Ortenburg, Germany). The half maximal inhibitory concentration (IC50) was determined by plotting dose response curves and nonlinear regression with GraphPad Prism (GraphPad Software).
2.8. MTT Cell Viability Assay […]

As for `O=C(CCCCCCNC(=O)c1ccc(NC(=O)CCCCCCCCCCCN(C(=O)CCl)C(C(=O)NCc2ccccc2)c2ccc(Cl)c(Cl)c2)cc1)NO` (centres unmarked) [Compound 1j], the IC50 turned out to be 53 ± 1 nM.

Compound `O=C(CCCCCCNC(=O)c1ccc(N(C(=O)CCl)C(C(=O)NCc2ccccc2)c2ccc(Cl)c(Cl)c2)cc1)NO` (centres unmarked) [Compound 2] displayed a half-maximal inhibitory concentration (IC50) of 7 ± 1 nM.
